Reference: patent US9822113B2, “Tricyclic compounds and process for preparation thereof” (Council of Scientific & Industrial Research, priority 2013, dated 2017)
In brackets after ≈: the same amount, converted by molar mass. Read-outs that look alike come from different tables or passages of the source.

Experiments:
[1] = system: Salmonella enterica strain AMC (ATCC #6539); assay: Antibiotic assay: MIC by Promega Bac Titer-Glo microbial cell viability assay; assay type: cell-based; conditions: 24 hours treatment, inoculum ~5×10^4 CFU/mL, Mueller Hinton broth
Method: In a preferred embodiment, the novel a novel tricyclic compounds of formula (I) and formula (II) are evaluated for anti-microbial activity. The minimum inhibitory concentrations (MICs) is determined using the Promega Bac Titer-Glo microbial cell viability assay. The assays is carried out using Salmonella enterica strain AMC (ATCC #6539), Inocula of S. enterica prepared from 12-h broth cultures grown in Mueller Hinton broth and the suspensions were then adjusted to a turbidity of 0.5 McFarland. […] Bacterial cells were treated with hunanamycin analogs for 24 hours at ranges from 0.4 to 40 μg/mL and ciprofloxacin as a control ranging from 0.03 to 10 μg/mL. The OD600 measured using an Envision multi-modal plate reader (Perkin-Elmer, Inc.).
The minimum inhibitory concentrations (MICs) were determined using the Promega Bac Titer-Glo microbial cell viability assay, which measures cell viability by quantitation of ATP present, an indicator of metabolic activity of cells. The assays were carried out using Salmonella enterica strain AMC (ATCC #6539), Inocula of S. enterica were prepared from 12-h broth cultures grown in Mueller Hinton broth and the suspensions were then adjusted to a turbidity of 0.5 McFarland. […] Bacterial cells were treated with hunanamycin analogs for 24 hours at ranges from 0.4 to 40 μg/mL and ciprofloxacin as a control ranging from 0.03 to 10 μg/mL. The OD600 was measured using an Envision multi-modal plate reader (Perkin-Elmer, Inc.). The antibiotic assays were performed in Prof. John B. MacMillan's lab, Department of Biochemistry, University of Texas Southwestern Medical Center at Dallas, USA.

Salmonella enterica = conditions: against the bacterial pathogen Salmonella enterica; literature value; cited from earlier work
[2] = Salmonella enterica, ATCC6539, 24 h
[3] = Salmonella enterica, ATCC6539, 24 h, read-out: MIC

Cc1cc2c3c(c1C)C(C)(C)CCn3c(=O)c(=O)n2C[C@H](O)[C@H](O)[C@H](O)CO (stereo in doubt) [Compound 2, 7,7,8,9-tetramethyl-1-((2S,3S,4R)-2,3,4,5-tetrahydroxypentyl)-6,7-dihydro-1H,5H-pyrido[1,2,3-de]quinoxaline-2,3-dione]
MIC [1, 2]: 8 µg/mL (≈ 20.4 µM) | minimum inhibitory concentration (MIC) (Salmonella enterica): 12.4 µM (≈ 4.87 µg/mL)

CC1(C)CCn2c(=O)n(Cc3cn(CCO)nn3)c3cccc1c32 [1-((1-(2-hydroxyethyl)-1H-1,2,3-triazol-4-yl)methyl)-6,6-dimethyl-5,6-dihydro-4H-imidazo[4,5,1-ij]quinolin-2(1H)-one]
MIC [1, 2]: 8 µg/mL (≈ 24.4 µM)

Cc1cc2c3c(c1C)C(C)(C)CCn3c(=O)c(=O)n2C[C@@H](O)[C@H](O)[C@H](O)CO [7,7,8,9-tetramethyl-1-((2R,3S,4R)-2,3,4,5-tetrahydroxy-pentyl)-6,7-dihydro-1H,5H-pyrido[1,2,3-de]quinoxaline-2,3-dione]
MIC [1, 2]: 8 µg/mL (≈ 20.4 µM)

Cc1cc2nc(OC[C@H](O)[C@H](O)[C@H](O)CO)c(=O)n3c2c(c1C)C(C)(C)CC3 [Compound 1, 7,7,8,9-tetramethyl-2-(((2S,3R,4R)-2,3,4,5-tetrahydroxy-pentyl)oxy)-6,7-dihydro-3H,5H-pyrido[1,2,3-de]quinoxalin-3-one]
MIC [1, 2]: 8 µg/mL (≈ 20.4 µM)

Cc1cc2c3c(c1C)C(C)(C)CCn3c(=O)c(=O)n2C[C@H](O)[C@H](O)[C@H](O)CO [Compound 2, 7,7,8,9-tetramethyl-1-((2S,3S,4R)-2,3,4,5-tetrahydroxypentyl)-6,7-dihydro-1H,5H-pyrido[1,2,3-de]quinoxaline-2,3-dione]
MIC [1, 3]: 8 µg/mL (≈ 20.4 µM)

Cc1cc2c3c(c1C)C(C)(C)CCn3c(=O)c(=O)n2C[C@@H](O)[C@H](O)[C@H](O)CO [Compound 3, 7,7,8,9-tetramethyl-1-((2R,3S,4R)-2,3,4,5-tetrahydroxy-pentyl)-6,7-dihydro-1H,5H-pyrido[1,2,3-de]quinoxaline-2,3-dione]
MIC [1]: 8 µg/mL (≈ 20.4 µM)

Cc1cc2c3c(c1C)C(C)(C)CCn3c(=O)c(=O)n2CC(O)CO (stereo not drawn) [Compound 4, 1-(2,3-dihydroxypropyl)-7,7,8,9-tetramethyl-6,7-dihydro-1H,5H-pyrido[1,2,3-de]quinoxaline-2,3-dione]
MIC [1, 3]: > 16 µg/mL

Cc1cc2c3c(c1C)C(C)(C)CCn3c(=O)c(=O)n2CC(O)C(O)C(O)CO (stereo not drawn) [Compound 5, 7,7,8,9-tetramethyl-1-(2,3,4,5-tetrahydroxypentyl)-6,7-dihydro-1H,5H-pyrido[1,2,3-de]quinoxaline-2,3-dione]
MIC [1, 3]: 4 µg/mL (≈ 10.2 µM)

CC1(C)CCn2c(=O)c(OC[C@H](O)[C@H](O)[C@H](O)CO)nc3cccc1c32 [Compound 6, 7,7-dimethyl-2-(((2S,3R,4R)-2,3,4,5-tetrahydroxypentyl)oxy)-6,7-dihydro-3H,5H-pyrido[1,2,3-de]quinoxalin-3-one]
MIC [1, 3]: > 16 µg/mL

CC1(C)CCn2c(=O)c(=O)n(C[C@H](O)[C@H](O)[C@H](O)CO)c3cccc1c32 [Compound 7, 7,7-dimethyl-1-((2S,3S,4R)-2,3,4,5-tetrahydroxypentyl)-6,7-dihydro-1H,5H-pyrido[1,2,3-de]quinoxaline-2,3-dione]
MIC [1, 3]: > 16 µg/mL

CC1(C)CCn2c(=O)c(=O)n(C[C@@H](O)[C@H](O)[C@H](O)CO)c3cccc1c32 [Compound 8, 7,7-dimethyl-1-((2R,3S,4R)-2,3,4,5-tetrahydroxypentyl)-6,7-dihydro-1H,5H-pyrido[1,2,3-de]quinoxaline-2,3-dione]
MIC [1]: >16 µg/mL | MIC [1, 3]: > 16 µg/mL

CC1(C)CCn2c(=O)c(=O)n(CC(O)CO)c3cccc1c32 (stereo not drawn) [Compound 9, 1-(2,3-dihydroxypropyl)-7,7-dimethyl-6,7-dihydro-1H,5H-pyrido[1,2,3-de]quinoxaline-2,3-dione]
MIC [1, 2]: 8 µg/mL (≈ 26.3 µM)

CCOC(=O)Cn1cc(Cn2c(=O)c(=O)n3c4c(cccc42)C(C)(C)CC3)nn1 [Compound 10, ethyl 2-(4-((7,7-dimethyl-2,3-dioxo-2,3,6,7-tetrahydro-1H,5H-pyrido[1,2,3-de]quinoxalin-1-yl)methyl)-1H-1,2,3-triazol-1-yl)acetate]
MIC [1, 3]: > 16 µg/mL

COC1O[C@H](Cn2c(=O)c(=O)n3c4c(cccc42)C(C)(C)CC3)[C@@H](O)[C@H]1O (stereo partly drawn) [Compound 11, 1-(((2R,3S,4R)-3,4-dihydroxy-5-methoxytetrahydrofuran-2-yl)methyl)-7,7-dimethyl-6,7-dihydro-1H,5H-pyrido[1,2,3-de]quinoxaline-2,3-dione]
MIC [1, 3]: > 16 µg/mL

CC1(C)CCn2c(=O)c(=O)n(C[C@@H](O)[C@H](O)CO)c3cccc1c32 [Compound 12, 7,7-dimethyl-1-((2R,3R)-2,3,4-trihydroxybutyl)-6,7-dihydro-1H,5H-pyrido[1,2,3-de]quinoxaline-2,3-dione]
MIC [1, 3]: > 16 µg/mL

CC1(C)CCn2c(=O)c(OC[C@H](O)[C@@H](O)CO)nc3cccc1c32 [Compound 13, 7,7-dimethyl-2-((2S,3S)-2,3,4-trihydroxybutoxy)-6,7-dihydro-3H,5H-pyrido[1,2,3-de]quinoxalin-3-one]
MIC [1, 3]: 16 µg/mL (≈ 47.9 µM)

CC(O)C(O)Cn1c(=O)c(=O)n2c3c(cccc31)C(C)(C)CC2 (stereo not drawn) [Compound 14, 1-(2,3-dihydroxybutyl)-7,7-dimethyl-6,7-dihydro-1H,5H-pyrido[1,2,3-de]quinoxaline-2,3-dione]
MIC [1, 3]: > 16 µg/mL

CC1(C)CCn2c(=O)c(=O)n(CC(O)C(C)(C)O)c3cccc1c32 (stereo not drawn) [Compound 15, 1-(2,3-dihydroxy-3-methylbutyl)-7,7-dimethyl-6,7-dihydro-1H,5H-pyrido[1,2,3-de]quinoxaline-2,3-dione]
MIC [1, 3]: > 16 µg/mL

CC1(C)CCn2c(=O)c(OC[C@H](O)CO)nc3cccc1c32 [Compound 16, (R)-2-(2,3-dihydroxypropoxy)-7,7-dimethyl-6,7-dihydro-3H,5H-pyrido[1,2,3-de]quinoxalin-3-one]
MIC [1, 3]: > 16 µg/mL

CC1(C)CCn2c(=O)n(C[C@H](O)[C@H](O)[C@H](O)CO)c3cccc1c32 [Compound 21, 6,6-dimethyl-1-((2S,3S,4R)-2,3,4,5-tetrahydroxypentyl)-5,6-dihydro-4H-imidazo[4,5,1-ij]quinolin-2(1H)-one]
MIC [1, 3]: 4 µg/mL (≈ 11.9 µM)

CC1(C)CCn2c(=O)n(CC(O)CO)c3cccc1c32 (stereo not drawn) [Compound 23, 1-(2,3-dihydroxypropyl)-6,6-dimethyl-5,6-dihydro-4H-imidazo[4,5,1-ij]quinolin-2(1H)-one]
MIC [1, 3]: > 16 µg/mL

CC1(C)CCn2c(=O)n(Cc3cn(CCO)nn3)c3cccc1c32 [Compound 24, 1-((1-(2-hydroxyethyl)-1H-1,2,3-triazol-4-yl)methyl)-6,6-dimethyl-5,6-dihydro-4H-imidazo[4,5,1-ij]quinolin-2(1H)-one]
MIC [1]: >16 µg/mL

CCOC(=O)Cn1cc(Cn2c(=O)n3c4c(cccc42)C(C)(C)CC3)nn1 [Compound 24b, Ethyl 2-(4-((6,6-dimethyl-2-oxo-5,6-dihydro-4H-imidazo[4,5,1-ij]quinolin-1(2H)-yl)methyl)-1H-1,2,3-triazol-1-yl)acetate]
MIC [1, 3]: 8 µg/mL (≈ 21.7 µM)

COC1O[C@H](Cn2c(=O)n3c4c(cccc42)C(C)(C)CC3)[C@@H](O)[C@H]1O (stereo partly drawn) [Compound 25, 1-(((2R,3S,4R)-3,4-dihydroxy-5-methoxytetrahydrofuran-2-yl)methyl)-6,6-dimethyl-5,6-dihydro-4H-imidazo[4,5,1-ij]quinolin-2(1H)-one]
MIC [1, 3]: 2 µg/mL (≈ 5.74 µM)

CC1(C)CCn2c(=O)n(C[C@@H](O)[C@H](O)CO)c3cccc1c32 [Compound 26, 6,6-dimethyl-1-((2R,3R)-2,3,4-trihydroxybutyl)-5,6-dihydro-4H-imidazo[4,5,1-ij]quinolin-2(1H)-one]
MIC [1, 3]: > 16 µg/mL
